Reference: patent US11266599B2, “Inhalable dry powder cytidine analogue composition and method of use as a treatment for cancer” (Lovelace Biomedical Research Institute, priority 2018, dated 2022)

Tests used:
PD-L1 = conditions: LC cell lines, in vitro; cited from earlier work
[1] = tested on: xenografts of human LC-derived cell lines; conditions: Rowett nude rat, systemic intraperitoneal injection, reference 29; cited from earlier work
[2] = room temperature; cited from earlier work
[3] = rats, intravenous 200 mg/kg for a month; cited from earlier work
[4] = Pharmacokinetics study of systemic, inhaled aqueous and inhaled dry powder 5AZA, with and without THU; assay type: in vivo, Sprague Dawley rat; conditions: THU 80 mg/kg oral
Procedure: The 5AZA aerosol was delivered into the lungs of rats using a nose only inhalation delivery system in which a 5AZA dry powder formulation and a 5AZA aqueous formulation aerosol is generated with a rotating brush generator or Pari nebulizer, respectively. […] At each time-point, systemic blood was collected into K3EDTA tubes for separation into plasma and lung, liver, and brain tissue was snap frozen in liquid nitrogen. Plasma and lung tissue samples were assayed via a liquid chromatography mass spectrometry assay and the average concentration versus time profile modeled with non-compartmental analysis.

## Nc1ncn([C@@H]2O[C@H](CO)[C@@H](O)[C@H]2O)c(=O)n1 [5AZA, 4-amino-1-β-D-ribofuranosyl-1,3,5-triazin-2(1H)-one]
PD-L1
  expression of PD-L1: increased
[1]
  reduction of tumor burden / suppression of tumor growth: 31%

## Nc1ncn([C@H]2C[C@H](O)[C@@H](CO)O2)c(=O)n1 [DAC, 5-aza-2′-deoxyazacytidine]
[2]
  stability in aqueous solution: relatively unstable

## C[S+](C)[O-] [DMSO]
[3]
  toxicity: no toxicity

## O=C1NC(O)CCN1[C@@H]1O[C@H](CO)[C@@H](O)[C@H]1O (stereo partly drawn) [THU, tetrahydrouridine]
[4]
  effect of addition of THU on PK profile of the dry powder formulation in brain: greatly improved
  effect of addition of THU on lung PK of 5AZA: did not influence
